In article PMC10973027 (Molecular Imaging and Biology, 2023):
Entries after “also recorded” stand apart in the source; their conditions may differ.

What was measured:
[1] = test system: ASYN pathology; conditions: mouse model of PD, once-daily over 3 months; cited from earlier work
[2] = Plasma pharmacokinetics after single oral dose in TM0017; format: in vivo; conditions: male, human, TM0017, single oral 360 mg
[3] = Safety and tolerability in TM0017 (TEAEs, ECG, vital signs)
Procedure: Other safety variables recorded include changes in 12-lead electrocardiogram (ECG) assessment and changes in vital signs (heart rate, systolic blood pressure, diastolic blood pressure, respiratory rate, and body temperature). Vital signs were measured in supine position following 5 min of rest and clinically significant abnormalities (according to the investigator) were recorded as an AE. All ECG recordings were performed following 5 min of rest in the supine position, in triplicate, with ≥ 1 min between each recording. If any clinically significant abnormalities occurred, an ECG data specialist was to review the recordings.

[4] = Plasma free fraction; format: in vitro ADME; conditions: human plasma
[5] = Phase 1 PET-CT brain biodistribution study TM0017 (VT, K1, k2); format: in vivo, human
Procedure: A sample size of 2–10 participants was considered sufficient to meet the objectives, whilst limiting radiation exposure.
The preparation of radiopharmaceuticals and execution of PET-CT scans was performed by radiochemists, physicians, and technologists of Invicro (London, UK). Following local anesthesia, a catheter was inserted into the radial artery by an experienced physician; two venous catheters were also inserted. […] Upon administration, dynamic scanning started immediately and continued for 90 min.
Arterial input function data were acquired and processed for all PET scans.
Anatomical regions of interest (ROI) were defined via nonlinear deformation of a template MR image and associated neuroanatomical atlas, to match individual participants’ MR images. These ROI included, but were not limited to: parietal lobe, occipital lobe, frontal lobe, temporal lobe, striatum, cerebellum, thalamus, and the brain stem. Participants’ PET images were registered to their MR images, enabling the individualized ROI to be applied to the dynamic emission data to generate regional time activity curves (TACs). For additional information on the generation of regional TACs, see the electronic supplement.
Phase 1 PET Study in Healthy Male Participants (TM0017)
The TAC and total plasma data were fitted to a single compartment model to determine the influx and efflux constants K1 and k2. Because the plasma free fraction estimate is imprecise, we elected to fit the model using the total (free and bound) arterial concentration input function. The parameters of this model are related to the analogous parameters which would be estimated using an accurate estimate of the free arterial concentration using the equations below. We were able therefore to determine and present the K1 and estimated whole brain total distribution volume (VT), with relatively good repeatability between patients, and the equations below could also be used to relate the overall mean estimates back to the ideal total brain to free plasma minzasolmin (V’T) and unidirectional extraction Eu which can be calculated using the free fraction. The blood volume in the model was fixed at 5%. In this model, radiotracer which is free in tissue, non-specifically bound and specifically bound (i.e. to a target of interest) are lumped together in a single compartment, and so interchange between those states is assumed to be rapid.
The arterial input function used represents the total concentration of parent radiotracer in plasma, with no correction for plasma protein binding and the fitted and observed K1 from this model is lower than the rate of uptake from the free plasma concentration (K’1):
To calculate the Eu from the observed K1 from the model we then need to combine […]
The partition coefficient between total brain and total plasma concentration was determined from the fitted K1 and k2 parameters: […]
and the ratio of total concentration in brain to free concentration in plasma ( V’T) could be […]
Supplemental Fig. 1. Example of HPLC chromatograms (radioactive trace, top; UV trace, bottom) obtained during HPLC analysis of [11C-N-CH3]UCB2713 dose. The time delay

[6] = test system: Caco-2 cell system; set-up: method as in PMID 35959805; conditions: Caco-2, in vitro; cited from earlier work
[7] = set-up: method as in PMID 35959805; conditions: cited from earlier work
[8] = TM0017, N = 4, single oral dose 360 mg
[9] = UP0030, 90–450 mg single ascending dose

CCCC[C@H](Cc1c[nH]c2ccccc12)NC(=O)c1cnc(N2CCN(C)CC2)s1 [minzasolmin, N-[(1R)-1-(1H-indol-3-ylmethyl)pentyl]-2-(4-methylpiperazin-1-yl)thiazole-5-carboxamide]
tolerability [1]: well-tolerated | AUC ([2]; read-out: AUC GeoMean (time zero to infinity)): 13200 ng·h/mL | Cmax ([2]; read-out: Cmax GeoMean): 1580 ng/mL | half-life ([2]; read-out: apparent terminal elimination half-life (GeoMean) (converted)): 11.4 h | Tmax ([2]; read-out: tmax Median): 2 h | Any TEAEs [3, 8]: 3 (75) n (%) | Deaths [3, 8]: 0 n (%) | Discontinuations due to TEAEs [3, 8]: 0 n (%) | Drug-related TEAEs [3, 8]: 0 n (%) | Serious TEAEs [3, 8]: 0 n (%) | Severe TEAEs [3, 8]: 0 n (%) | TEAEs of special interest [3, 8]: 0 n (%) | ECG parameters, vital signs, laboratory parameters ([3]; TM0017, healthy male participants): No clinically relevant findings in ECG parameters or vital sign measurements; also recorded: no clinically relevant findings in laboratory parameters, vital signs, or ECG recordings | participants reporting TEAEs ([3]; TM0017 overall, three out of four participants): 75% | fraction unbound [4]: ~0.025 | Kp ([5]; male, human, brain/plasma, intravenous, steady-state, from VT, read-out: Kp (total brain to total plasma concentration, partition coefficient)): ~0.5 | maximum projected human total brain concentration ([5]; minzasolmin 360 mg/day dose, with plasma concentrations of UP0077): up to 1273 ng/mL | permeability [6]: high permeability | AUC GeoMean (time zero to infinity) [7, 9]: 3225 to 17040 ng·h/mL | Cmax GeoMean [7, 9]: 374 to 1806 ng/mL | tmax Median [7, 9]: 1.5 to 2 h | apparent terminal elimination half-life, GeoMean range ([7]; previous phase 1/1b studies): 9.3 to 13.1 h
